Test results: BindingDB's records for patent US20250115598 (Anaxis Pharma, 2025)

Columns and labels:
Experiment in all cases: In Vitro Assay
[1] = biological target: Receptor-interacting serine/threonine-protein kinase 3 (Homo sapiens, UniProt Q9Y572)
Protocol: (§1) Binding affinity of the test compounds for human MLKL (full length), mouse MLKL (full length), human RIPK1 and human RIPK3 was determined using the KINOMEscan™ technology developed by DiscoverX (USA; http://www.discoverx.com). The assay was conducted according to manufacturer instructions.

[2] = biological target: T1, Receptor-interacting serine/threonine-protein kinase 1 (Homo sapiens, UniProt Q13546)
T1 sequence (Q13546 whole entry): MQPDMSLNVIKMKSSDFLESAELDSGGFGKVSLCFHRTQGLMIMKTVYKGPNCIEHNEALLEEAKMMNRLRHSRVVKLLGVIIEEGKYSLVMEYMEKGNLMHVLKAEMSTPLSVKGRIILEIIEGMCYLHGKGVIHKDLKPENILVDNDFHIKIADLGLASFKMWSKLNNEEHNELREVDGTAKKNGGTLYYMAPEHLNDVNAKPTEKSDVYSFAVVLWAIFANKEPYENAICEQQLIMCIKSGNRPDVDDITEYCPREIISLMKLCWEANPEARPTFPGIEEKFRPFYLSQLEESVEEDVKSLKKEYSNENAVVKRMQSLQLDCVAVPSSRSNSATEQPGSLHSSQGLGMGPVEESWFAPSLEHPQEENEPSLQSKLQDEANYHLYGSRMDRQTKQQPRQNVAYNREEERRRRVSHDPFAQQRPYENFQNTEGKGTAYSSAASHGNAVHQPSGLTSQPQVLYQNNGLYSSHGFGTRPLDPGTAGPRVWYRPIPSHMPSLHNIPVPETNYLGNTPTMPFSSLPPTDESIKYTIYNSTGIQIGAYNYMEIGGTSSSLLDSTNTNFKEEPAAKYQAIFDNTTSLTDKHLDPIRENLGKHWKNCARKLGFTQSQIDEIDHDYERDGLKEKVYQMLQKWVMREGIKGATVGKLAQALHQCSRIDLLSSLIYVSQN
Protocol: as §1

[3] = biological target: T2, Mixed lineage kinase domain-like protein (Homo sapiens, UniProt Q8NB16)
T2 sequence (Q8NB16 whole entry): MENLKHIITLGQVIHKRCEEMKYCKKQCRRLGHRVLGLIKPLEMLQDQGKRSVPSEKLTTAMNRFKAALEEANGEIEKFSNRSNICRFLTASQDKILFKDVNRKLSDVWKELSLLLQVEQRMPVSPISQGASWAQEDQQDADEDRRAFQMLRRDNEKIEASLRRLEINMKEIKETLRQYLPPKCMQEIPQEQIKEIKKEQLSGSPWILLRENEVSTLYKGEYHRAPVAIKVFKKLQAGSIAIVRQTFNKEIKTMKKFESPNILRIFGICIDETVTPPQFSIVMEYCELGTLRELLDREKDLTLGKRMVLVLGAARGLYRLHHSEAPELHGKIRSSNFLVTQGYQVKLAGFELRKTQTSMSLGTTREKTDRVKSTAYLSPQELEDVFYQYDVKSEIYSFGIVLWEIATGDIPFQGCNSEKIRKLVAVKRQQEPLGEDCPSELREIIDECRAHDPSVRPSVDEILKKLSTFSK
Protocol: as §1

Receptor-interacting serine/threonine-protein kinase 3, sequence (Q9Y572 whole entry): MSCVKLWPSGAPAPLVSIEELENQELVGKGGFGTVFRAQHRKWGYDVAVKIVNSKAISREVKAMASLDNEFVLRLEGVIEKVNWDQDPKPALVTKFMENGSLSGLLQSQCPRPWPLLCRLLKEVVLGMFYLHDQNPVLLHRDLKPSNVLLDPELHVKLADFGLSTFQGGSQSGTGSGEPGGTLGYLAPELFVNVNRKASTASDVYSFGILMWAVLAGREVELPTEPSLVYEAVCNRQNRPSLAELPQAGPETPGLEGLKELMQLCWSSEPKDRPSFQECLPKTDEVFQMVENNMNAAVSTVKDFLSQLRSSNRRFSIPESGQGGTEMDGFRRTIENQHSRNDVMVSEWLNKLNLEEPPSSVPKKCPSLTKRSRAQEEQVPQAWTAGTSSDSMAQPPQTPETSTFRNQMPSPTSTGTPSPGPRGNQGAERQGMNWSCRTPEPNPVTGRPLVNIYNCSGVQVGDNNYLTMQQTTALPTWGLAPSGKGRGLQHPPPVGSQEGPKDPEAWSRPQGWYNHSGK

Kd [1] | Kd [2] | Kd [3] | Compound
> 2.5 µM | > 2.5 µM | – | C[C@H](Oc1cc(-c2nn(C)c3c(C4=CCCN(C)C4)cnc(N)c23)ccc1NS(=O)(=O)C(F)F)c1ccc(F)cc1 [US20250115598, Compound 55]
> 2.5 µM | > 2.5 µM | – | Cn1nc(-c2ccc(NS(=O)(=O)C(F)F)c(OCc3ccc(F)cc3)c2)c2c(N)ncc(-c3ccncc3)c21 [US20250115598, Compound 14]
> 2.5 µM | > 2.5 µM | – | C[C@H](Oc1cc(-c2nn(C)c3c(-c4cnn(C5CCN(C)C(C(F)F)C5)c4)cnc(N)c23)ccc1NS(=O)(=O)C(F)F)c1ccc(F)cc1 (stereo partly drawn) [US20250115598, Compound 158]
> 2.5 µM | > 2.5 µM | – | Nc1ncc(-c2cnn(C3CCOCC3)c2)c2occ(-c3ccc(NS(=O)(=O)C(F)F)c(OCc4ccc(F)cc4)c3)c12 [US20250115598, Compound 5]
> 2.5 µM | > 2.5 µM | – | C[C@H](Oc1cc(-c2nn(C)c3c(-c4cnn(C5CCOCC5)c4)cnc(N)c23)ccc1NS(=O)(=O)C(F)F)c1ccc(F)cc1 [US20250115598, Compound 135]
– | – | < 0.05 µM | C[C@H](Oc1cc(-c2nn(C)c3c(-c4cnn(CCC(F)(F)F)c4)cnc(N)c23)ccc1NS(=O)(=O)C(F)F)c1ccc(F)cc1 [US20250115598, Compound 113]
> 2.5 µM | > 2.5 µM | – | COc1ccc([C@H](C)Oc2cc(-c3nn(C)c4c(-c5cnn(C6CCOCC6)c5)cnc(N)c34)ccc2NS(=O)(=O)C(F)F)cc1 [US20250115598, Compound 129]
